Here are results for 7 compounds from PMC7836687 (International Journal of Biological Macromolecules, 2020).

Broadly, the IC50 is the point on the concentration scale where inhibition reaches its midpoint. Broadly, the inhibition is the share of the control response that was lost under treatment.

Data set [1] relates to SARS-CoV-2. It counts as cell-based, SARS-CoV-2 (βCoV/KOR/KCDC03/2020). The following applies: Severe acute respiratory syndrome coronavirus 2, Vero; for IC50: read-out: IC50 against SARS-CoV-2 infection.
For data set [2], the system named is Vero cells. The following applies: at concentration 12.50 μM.
For data set [3] the following is noted: cited from earlier work.

With `CCC(CC)COC(=O)[C@H](C)N[P@](=O)(OC[C@H]1O[C@@](C#N)(c2ccc3c(N)ncnn23)[C@H](O)[C@@H]1O)Oc1ccccc1` [remdesivir, reference compound], the 50% inhibitory concentration (IC50) in data set [1] came to 8.17 µM. Still for that read-out and setting: under `C=C(C)[C@@H]1CCC(C)=C[C@H]1c1c(O)cc(CCCCC)c(C(=O)O)c1O` [CBDA, Cannabidiolic acid] stands 37.6 µM. As for `C=C(C)[C@@H]1CCC(C)=C[C@H]1c1c(O)cc(CCCCC)cc1O` [CBD, Cannabidiol], in data set [1], the half-inhibitory concentration (IC50) stood at 7.91 µM. In addition, the inhibition at 12.5 µM in data set [1] (read-out: inhibition of SARS-CoV-2 virus) worked out at 99.2%. Further, the “Vero cell survival ratio” value in data set [2] is 97.46%. The safe dose entry in data set [3] (humans, concluded from literature dosing) is recorded as “up to 60 mg per day”. For the same compound, the “safety of a single oral dose” value in data set [3] (single oral dose 100 mg, healthy volunteers) is “safe and tolerable”. Consider `CCCCCc1cc(O)c2c(c1)OC(C)(C)c1ccc(C)cc1-2` [CBN, Cannabinol], for which the concentration for half-maximal inhibition (IC50) in data set [1] came out at 11.1 µM. As for `CCCCCc1cc(O)c2c(c1)OC(C)(C)[C@@H]1CCC(C)=C[C@@H]21` [Δ^9-THC, Δ^9-tetrahydrocannabinol], in data set [1], the 50% inhibitory concentration (IC50) stood at 10.2 µM.

Consider `CCN(CC)CCCC(C)Nc1ccnc2cc(Cl)ccc12` (centres unmarked) [chloroquine, reference compound], for which, in data set [1], the half-inhibitory concentration (IC50) was 9.78 µM. On the same count and under the same terms, under `Cc1cccc(C)c1OCC(=O)N[C@@H](Cc1ccccc1)[C@@H](O)C[C@H](Cc1ccccc1)NC(=O)[C@H](C(C)C)N1CCCNC1=O` [lopinavir, reference compound] stands 13.2 µM.
